Experiments:
P-gp = assay: PET imaging after cyclosporine A (efflux pump inhibitor) in healthy rats; type: in vivo, rat; settings: increased lung uptake in healthy rats after cyclosporine A
Method: Dynamic PET imaging was performed with NanoPET/CT and nanoPET/MR 1 T scanners (Mediso Ltd., Hungary, Budapest) with identical PET components. All injections were performed via a tail vein catheter. […] Rats were positioned on the scanner bed and the respiratory rate was monitored for the duration of the experiment, adjusting anaesthesia when required. Animals first underwent a computed tomography (CT) or magnetic resonance imaging (MRI) scan to keep the isoflurane exposure as low as possible (see Fig. 2 for the set-up of the experiment). All tracer injections were performed via a tail vein catheter using 4 and 2% isoflurane in 1 L min^−1 oxygen for induction and maintenance, respectively (see Table 1 for animal weights and injected doses). Dynamic PET scans, starting at the time of tracer administration, were acquired for 60 min. Immediately after the [^11C]LR111 scan, a bolus injection of [^18F]EW-7197 was administered, in order to minimize the time that rats were exposed to isoflurane, and another dynamic PET scan was acquired. […] Images were analysed using the freely available software AMIDE, version 1.0.4 (http://amide.sourceforge.net/). […] Uptake was expressed as standard uptake values (SUV), which was calculated according to the following equation: SUV=%uptake of the total tracer dose/volume of the region of interest/bodyweight

ALK5 [1] = biological target: T1, ALK5 (Rattus norvegicus, UniProt P80204); assay: Autoradiography on control, MCT- and SuHx-exposed rat lung sections; type: binding; settings: for Binding to MCT-exposed lungs compared with control lungs: MCT-exposed lungs (Wistar) vs healthy lungs normalized to 100%; for Binding to MCT-exposed lungs compared with control lungs / Binding to SuHx-exposed lungs compared with control lungs: n = 3; for Binding to SuHx-exposed lungs compared with control lungs: SuHx-exposed lungs (S.D.) vs healthy lungs normalized to 100%
T1 sequence (P80204 30-501): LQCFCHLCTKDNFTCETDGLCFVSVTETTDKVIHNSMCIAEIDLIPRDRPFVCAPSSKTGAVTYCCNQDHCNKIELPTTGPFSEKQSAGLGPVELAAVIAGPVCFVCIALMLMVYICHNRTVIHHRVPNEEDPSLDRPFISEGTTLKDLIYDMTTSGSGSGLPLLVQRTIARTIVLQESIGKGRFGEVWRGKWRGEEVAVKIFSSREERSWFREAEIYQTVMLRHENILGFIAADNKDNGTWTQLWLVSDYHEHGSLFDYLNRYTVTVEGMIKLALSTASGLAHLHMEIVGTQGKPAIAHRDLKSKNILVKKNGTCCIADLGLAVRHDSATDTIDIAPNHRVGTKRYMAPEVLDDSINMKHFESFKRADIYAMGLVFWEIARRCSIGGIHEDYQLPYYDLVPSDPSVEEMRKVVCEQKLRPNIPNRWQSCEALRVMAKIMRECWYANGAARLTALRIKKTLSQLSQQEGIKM
Method: Sections of 10 μm thickness were cut using a Cryostat ([…]) and thaw mounted on Thermo Scientific Superfrost plus adhesion slides. The sections were stored at- 20 °C until further handling. Tissue sections were defrosted, washed three times for 5 min with 5 mM Tris HCl buffer, pH 7.4 and dried in a cold stream of air. […] Sigma-Aldrich, Zwijndrecht, The Netherlands). The sections were washed in cold 5 mM Tris HCl buffer, pH 7.4, (three times 1 min) followed by a dip in ice cold water. […] Screens were developed on a Typhoon FLA 7000 phosphor imager (GE Healthcare lifescience, Buckinghamshire, UK) and analysed using Image Quant TL v8.1.0.0 (GE Healthcare lifescience, Buckinghamshire, UK). […] Statistical analysis was performed using Graphpad PRISM (v 5.02, Graphpad Software Inc). Tracer uptake in the tissue was compared with tracer uptake co-administered with SB431542 by using a one-tailed unpaired t-test. Differences were considered significant if p < 0.05. Adjacent tissue sections were used for autoradiography experiments.

[2] = Ex vivo metabolite analysis in rat blood plasma (SPE/HPLC); settings: for Intact tracer: rat blood plasma, ± SEM, n = 4; for In vivo metabolic stability in rats: in words
Method: (§1) A biodistribution study and metabolite analysis was carried out in healthy male Wistar rats (214 ± 15 g, Charles River, Germany). Rats were injected with 21 ± 15 MBq of [^11C]LR111 in the tail vein under isoflurane anaesthesia (2% in O2 at 1 L min^−1). Rats were sacrificed under similar isoflurane anaesthesia by exsanguination and dissected at 5, 15, 30 and 60 min post injection (p.i.) (n = 4 per time point). Rats were injected with 14 ± 5 MBq [^18F]EW-7197 in the tail vein under isoflurane anaesthesia (2% in O2 at 1 L min^−1). Rats were sacrificed under similar isoflurane anaesthesia by exsanguination and dissected at 5, 15, 30 and 45 min post injection (p.i.) (n = 4 per time point). Blood, heart, lungs, liver, kidneys, urine, bone and brain were collected, weighed and counted for radioactivity (Wallac 1210 Compugamma, PerkinElmer, Waltham, MA, USA). Biodistribution data were expressed as percentage injected dose per gram tissue (%ID·g^−1) ± standard error of the mean (SEM). Blood at 15 min and 60 min p.i. ([^11C]LR111) and blood at 15 min and 45 min p.i. ([^18F]EW-7197), withdrawn from the abdominal aorta, (~ 7 mL) was collected in a heparin coated tube and centrifuged at 5000 rpm to separate plasma from blood cells (Hettich universal 32, Andreas Hettich GmbH & Co. KG, Tuttlingen, Germany). Solid phase extraction (SPE) cartridges (tC2, Waters, Ettenleur, The Netherlands) were preconditioned by washing with 6 mL MeOH and 2 × 6 mL H2O. Plasma (1 mL) was mixed with 6.0 M HCl (50 µL) and loaded on the SPE cartridge (> 99% recovery). The polar metabolite fraction was obtained by eluting the SPE cartridge with H2O (3 mL), the non-polar fraction by subsequent elution with MeOH (2 mL) and H2O (1 mL). Fractions were counted for radioactivity (Wallac 1210 Compugamma, PerkinElmer, Waltham, MA, USA). The percentage of intact tracer in the non-polar fraction was determined by online HPLC analysis on a Dionex (Sunnyvale, CA, USA) UltiMate 3000 HPLC equipment with Chromeleon software (version 6.8) equipped with a Gemini C18 column (5 μm, 10 × 250 mm, Phenomenex, Torrance, CA, USA) with a mixture of MeCN (A) and 0.1% TFA in water (B) as eluent according to the following scheme 0 min: 90% B; 12 min 15% B; 8 min 90% B at 3.5 mL.min^−1 [^11C]LR111 Rt = 10.7 min and [^18F]EW-7197 Rt = 9.2 min. Results were expressed as percentage of intact tracer, polar metabolites and non-polar metabolites ± SEM (n = 4 for each time point).

ALK5 [3] = biological target: T1, ALK5; assay: Dynamic PET imaging of lung uptake in control, MCT- and SuHx-exposed rats; type: in vivo; settings: for Difference in lung uptake between control group and diseased animals after 15 min: after 15 min p.i.
Method: Dynamic PET imaging was performed with NanoPET/CT and nanoPET/MR 1 T scanners (Mediso Ltd., Hungary, Budapest) with identical PET components. All injections were performed via a tail vein catheter. […] Rats were positioned on the scanner bed and the respiratory rate was monitored for the duration of the experiment, adjusting anaesthesia when required. Animals first underwent a computed tomography (CT) or magnetic resonance imaging (MRI) scan to keep the isoflurane exposure as low as possible (see Fig. 2 for the set-up of the experiment). […] Dynamic PET scans, starting at the time of tracer administration, were acquired for 60 min. […] At day 2, all animals received SB431542 30 min prior the injection of [^11C]LR111. In addition, the control group received a cyclosporine A (Sigma-Aldrich, Zwijndrecht, The Netherlands) injection at day 3, 30 min prior to the injection of [^11C]LR111. Finally, at day 4, SB431542 and cyclosporine A injections were administered 30 min prior to the injection of [^11C]LR111. After these scanning experiments, the animals were sacrificed by cervical dislocation. Lung tissues were removed from MCT (n = 3), SuHx (n = 3) and healthy rats (n = 3). They were filled with 50% Tissue-Tek (VWR, Amsterdam, The Netherlands) and 50% physiological salt and snap frozen in liquid nitrogen. Positron emission scans were acquired in list mode and rebinned into the following frame sequence: 4 × 5, 4 × 10, 2 × 30, 3 × 60, 2 × 300, 1 × 600, 1 × 900 and 1 × 1200 s. The scans were reconstructed with a spatial resolution of 0.4 mm and were corrected for attenuation and scatter. The scans of the first 30 s were combined to correct for injection speed differences. Images were analysed using the freely available software AMIDE, version 1.0.4 (http://amide.sourceforge.net/). […] Uptake was expressed as standard uptake values (SUV), which was calculated according to the following equation: SUV=%uptake of the total tracer dose/volume of the region of interest/bodyweight Error bars indicate standard deviation. Statistical analysis was performed using Graphpad PRISM (v 5.02, Graphpad Software Inc). Lung uptake in the control group was compared with uptake in the diseased animals with a one-tailed unpaired t-test. Differences were considered significant if p < 0.05. The representative PET images were generated using VivoQuant2020.

[4] = Ex vivo biodistribution study in healthy male Wistar rats; design: species or system rat; settings: i.v., ± SEM; for Retention in healthy lung tissue: 15 min p.i., n = 4
Method: as §1, with “Solid phase extraction (SPE) cartridges (tC2, Waters, Ettenleur, The Netherlands) were preconditioned by washing with 6 mL MeOH and 2 × 6 mL H2O. Plasma (1 mL) was mixed with 6.0 M HCl (50 µL) and loaded on the SPE cartridge (> 99% recovery). The polar metabolite fraction was obtained by eluting the SPE cartridge with H2O (3 mL), the non-polar fraction by subsequent elution with MeOH (2 mL) and H2O (1 mL).” left out

[5] = PET, 15 min p.i., MCT rats, baseline scan
[6] = PET, 15 min p.i., SuHx rats, baseline scan
[7] = PET, 15 min p.i., healthy Wistar rats
[8] = PET, 15 min p.i., healthy Wistar rats, SB431542 20 mg kg^−1 30 min prior
[9] = PET, 15 min p.i., healthy Wistar rats, baseline
[10] = PET, 15 min p.i., healthy Wistar rats, cyclosporine A 50 mg kg^−1 30 min prior
[11] = PET, 15 min p.i., healthy Wistar rats, cyclosporine A + SB431542

| Binding to MCT-exposed lungs compared with control lungs (ALK5 [1]) [times] | Binding to SuHx-exposed lungs compared with control lungs (ALK5 [1]) [times] | Intact tracer ([2]; 15 min p.i.) [%] | In vivo metabolic stability in rats [2] | Lung uptake in MCT-exposed rats compared with control group (ALK5 [3]; PET, 15 min p.i.) [fold] | Lung uptake in SuHx rats compared with control group (ALK5 [3]; PET, 15 min p.i.) | Uptake in the lungs (ALK5 [3]; [5]) [SUV] | Uptake in the lungs (ALK5 [3]; [6]) [SUV] | Uptake in the lungs (ALK5 [3]; [8]) [SUV] | Uptake in the lungs (ALK5 [3]; [9]) [SUV] | Uptake in the lungs (ALK5 [3]; [10]) [SUV] | Uptake in the lungs (ALK5 [3]; [11]) [SUV] | Difference in lung uptake between control group and diseased animals after 15 min (ALK5 [3]; PET) | Retention in healthy lung tissue [4] [% ID·g^−1] | SMILES | also measured |
| --- | --- | --- | --- | --- | --- | --- | --- | --- | --- | --- | --- | --- | --- | --- | --- |
| 1.2 | 1.2 | 55 ± 16 | moderately stable | 1.4 | 2.5 fold | 0.81 ± 0.15 | 1.47 ± 0.47 | 0.44 ± 0.12 | 0.59 ± 0.10 | 0.90 ± 0.18 | 0.72 ± 0.21 | no difference | 0.56 ± 0.07 | Cc1cccc(-c2[nH]c(CNc3ccccc3[18F])nc2-c2ccc3ncnn3c2)n1 [[^18F]EW-7197, N-((4-(1,2,4 triazolo 1,5-apyridin-6-yl)-5-(6-methylpyridin-2-yl)-1H-imidazol-2-yl)methyl)-2-fluoroaniline] | Substrate for P-gp (P-gp): substrate for P-gp; Intact tracer ([2]; 45 min p.i.): 23 ± 5%; Blocking of lung uptake with SB431542 in PET scans (ALK5 [3]; PET images, SB431542 20 mg kg^−1): could be blocked; Lung accumulation with cyclosporine A and SB431542 relative to baseline (ALK5 [3]; [7]): 1.2 fold; Lung accumulation with cyclosporine A relative to baseline (ALK5 [3]; [7]): 1.5 fold; Retention in bone [4]: 0.21 ± 0.02 % ID·g^−1 |
| 1.5 | 3.2 | 74 ± 5 | moderately stable | 1.1 | similar | 1.10 ± 0.25 | 1.04 ± 0.13 | 0.85 ± 0.12 | 1.03 ± 0.07 | 0.85 ± 0.19 | 1.00 ± 0.32 | no difference | 0.45 ± 0.03 | Cc1csc(-c2nc(CN[11C](=O)OCC(C)C)[nH]c2-c2ccc3ncsc3c2)n1 [[^11C]LR111] | Tracer binding when SB431542 was added (ALK5 [1]; SB431542 94 µM): could be blocked; Intact tracer ([2]; 60 min p.i.): 46 ± 2% |
